The record followed here is US7384478B2, “Apparatus and process for preparing crystalline particles” (Glaxo Group Limited, priority 2002, dated 2008).

A short description of the data set: Particle sizing with the Malvern laser diffraction particle sizer. The class given is physicochemical. The settings on record: for Malvern size data D10 / Malvern size data D50 / Malvern size data D90: crystalline fluticasone propionate particles, average of 2 results except values marked **. Here is the method:
The drug substance (fluticasone propionate, FP) (1 wt) was dissolved in acetone (15-20 vols, according to experiment) by heating to 56° C. and then allowed to cool to between 25 and 35° C. A first peristaltic pump was connected to the said FP/acetone solution and a second peristaltic pump was connected to a water reservoir wherein the water was in the temperature range of about 3-30° C. Prior to starting the pumps the mixing chamber was filled with a solution of acetone and water (the ratio of each being the same as the relative pumping rates from the two reservoirs). By doing this, the relative concentrations of the water to acetone remained constant throughout the crystallisation. The temperature of the mixing chamber was maintained in the range about −10 to +30° C. by passing tempered heat transfer fluid through the vessel jacket. The FP/acetone solution inlet and water inlet were arranged coaxially or in parallel (as shown in FIGS. 1a/1b/2a/2b) and the tip of the ultrasound probe was positioned so that it is just above the inlets. Stirring with the aid of a non-grinding magnetic stirrer bar or overhead stirrer was initiated as is the ultrasound at intensity 2-4 W/cm^2 (with respect to the tip face area of the probe). A comparison experiment with the ultrasound probe in place but zero power was performed. Re-crystallisations were carried out from various mixtures of acetone and water (by altering the flow rates of each) as dictated by the parameters set out in the experimental design. Finally the pumps were started simultaneously. A suspension of the crystals in the re-crystallisation mixture was allowed to exit via the overflow directly on to a filter bed. The slurry is isolated and washed with water and dried in vacuo between about 20 to 50° C.
Comparison experiments were performed using the apparatus with diametrically opposite input feeds described in WO 00/38811 in which save for the input feed geometry and the specific parameters given in the table below, and the vessel dimensions given below, other parameters Were similar to those used for the experiments using the present invention.
Samples were sized using the Malvern laser diffraction particle sizer and the results analysed using multi-dimensional model fitting software (such as Design Expert 5).

Marks after values point to notes of the source that are not given here.

With `CCC(=O)O[C@]1(C(=O)SCF)[C@H](C)C[C@H]2[C@@H]3C[C@H](F)C4=CC(=O)C=C[C@]4(C)[C@@]3(F)[C@@H](O)C[C@@]21C` [Run 1, fluticasone propionate], under “listed as 1”, the “Malvern size data D10” value is listed as 0.60 micron, the “Malvern size data D50” value amounted to 2.25 micron and the “Malvern size data D90” value worked out at 6.29 micron.
In the case of `CCC(=O)O[C@]1(C(=O)SCF)[C@H](C)C[C@H]2[C@@H]3C[C@H](F)C4=CC(=O)C=C[C@]4(C)[C@@]3(F)[C@@H](O)C[C@@]21C` [Run 2, fluticasone propionate], where the note is “listed as 2”, the “Malvern size data D10” value is on record as 0.52 micron, the “Malvern size data D50” value came to 2.08 micron and the “Malvern size data D90” value is listed as 5.10 micron.
In the case of `CCC(=O)O[C@]1(C(=O)SCF)[C@H](C)C[C@H]2[C@@H]3C[C@H](F)C4=CC(=O)C=C[C@]4(C)[C@@]3(F)[C@@H](O)C[C@@]21C` [Run 3, fluticasone propionate], where the note is “listed as 3”, the “Malvern size data D10” value worked out at 0.47 micron, the “Malvern size data D50” value is listed as 1.78 micron and the “Malvern size data D90” value came to 4.39 micron.
`CCC(=O)O[C@]1(C(=O)SCF)[C@H](C)C[C@H]2[C@@H]3C[C@H](F)C4=CC(=O)C=C[C@]4(C)[C@@]3(F)[C@@H](O)C[C@@]21C` [Run 4, fluticasone propionate]: where the note is “listed as 4”, the “Malvern size data D10” value is reported as 0.43** micron, the “Malvern size data D50” value was 1.51** micron and the “Malvern size data D90” value is 3.75** micron. The “particle size distribution, comparison in words” value (versus micronised material or prior art configurations C and D) is “very good match”.
With `CCC(=O)O[C@]1(C(=O)SCF)[C@H](C)C[C@H]2[C@@H]3C[C@H](F)C4=CC(=O)C=C[C@]4(C)[C@@]3(F)[C@@H](O)C[C@@]21C` [Run 5, fluticasone propionate], where the note is “listed as 5”, the “Malvern size data D10” value was 0.86 micron, the “Malvern size data D50” value is recorded as 2.98 micron and the “Malvern size data D90” value turned out to be 6.92 micron.
Regarding `CCC(=O)O[C@]1(C(=O)SCF)[C@H](C)C[C@H]2[C@@H]3C[C@H](F)C4=CC(=O)C=C[C@]4(C)[C@@]3(F)[C@@H](O)C[C@@]21C` [Run 6, fluticasone propionate], under “listed as 6”, the “Malvern size data D10” value was 0.53 micron, the “Malvern size data D50” value was determined as 2.06 micron and the “Malvern size data D90” value is recorded as 4.93 micron.
As to `CCC(=O)O[C@]1(C(=O)SCF)[C@H](C)C[C@H]2[C@@H]3C[C@H](F)C4=CC(=O)C=C[C@]4(C)[C@@]3(F)[C@@H](O)C[C@@]21C` [Run 7, fluticasone propionate], where the note is “listed as 7”, the “Malvern size data D10” value was determined as 1.15 micron, the “Malvern size data D50” value is 4.19 micron and the “Malvern size data D90” value is reported as 10.00 micron.
Take `CCC(=O)O[C@]1(C(=O)SCF)[C@H](C)C[C@H]2[C@@H]3C[C@H](F)C4=CC(=O)C=C[C@]4(C)[C@@]3(F)[C@@H](O)C[C@@]21C` [Run 8, fluticasone propionate]: for the setting “listed as 8”, the “Malvern size data D10” value is reported as 1.88 micron, the “Malvern size data D50” value is 5.13 micron and the “Malvern size data D90” value was 11.86 micron.
Regarding `CCC(=O)O[C@]1(C(=O)SCF)[C@H](C)C[C@H]2[C@@H]3C[C@H](F)C4=CC(=O)C=C[C@]4(C)[C@@]3(F)[C@@H](O)C[C@@]21C` [standard micronised FP, fluticasone propionate], the “Malvern size data D10” value is reported as 0.60 micron, the “Malvern size data D50” value is listed as 1.62 micron and the “Malvern size data D90” value came out at 3.20 micron.
